Assay results reported in patent US5639779A, “Indole derivatives as 5-HT1-like agonists” (Pfizer Inc., priority 1992, dated 1997).
pEC50: −log10 of the molar value.

Assays:
[1] = biological target: T1, "5-HT1 -like" receptor (dog isolated saphenous vein strip) (Canis lupus familiaris, UniProt P79250); assay: contraction of dog isolated saphenous vein strip (5-HT1-like receptor agonist activity); assay type: cell-based; conditions: in vitro; for RELATIVE POTENCY EC50 (compound)/EC50 (5-HT): ratio to 5-HT; for pEC50: read-out: EC50 (concentration of compound which causes 50% of the maximum contraction effected by it)
T1 construct: contracting the isolated dog saphenous vein strip; from tissue; host or cells: dog isolated saphenous vein strip
T1 sequence (P79250 whole entry): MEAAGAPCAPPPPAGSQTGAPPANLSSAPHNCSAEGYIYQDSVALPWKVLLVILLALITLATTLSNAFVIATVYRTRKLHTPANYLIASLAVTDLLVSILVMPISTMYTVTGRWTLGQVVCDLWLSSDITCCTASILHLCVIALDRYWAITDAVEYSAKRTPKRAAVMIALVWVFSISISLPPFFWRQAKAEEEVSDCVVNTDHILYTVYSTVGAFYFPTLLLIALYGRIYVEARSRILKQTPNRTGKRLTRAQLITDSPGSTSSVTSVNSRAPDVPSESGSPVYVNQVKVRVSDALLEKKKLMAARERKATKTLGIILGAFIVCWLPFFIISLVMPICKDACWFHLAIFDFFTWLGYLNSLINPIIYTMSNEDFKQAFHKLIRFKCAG
Experimental: The in vitro evaluation of the "5-HT1 -like" receptor agonist activity of the compounds of the invention is carried out by testing the extent to which they mimic sumatriptan in contracting the isolated dog saphenous vein strip (P. P. A. Humphrey et al., Brit. J. Pharmacol., 1988, 94, 1123).
The following Table illustrates the in vitro activities for a range of the Compounds of the invention on dog isolated saphenous vein strip. EC50 represents the concentration of compound which causes 50% of the maximum contraction effected by it.

[2] = biological target: T1, "5-HT1 -like" receptor (dog isolated saphenous vein strip); conditions: effect of sumatriptan-like contraction blocked by a known 5-HT antagonist; cited from earlier work
conscious dogs = assay: acute toxicity in conscious dogs; assay type: in vivo, dog; conditions: doses of up to 1 mg/Kg i.v.
[3] = tested on: carotid vascular resistance / carotid arterial blood flow; conditions: anaesthetized dog; cited from earlier work

| Structure (SMILES) | RELATIVE POTENCY EC50 (compound)/EC50 (5-HT) [1] | pEC50 [1] | blockade of contraction of dog saphenous vein strip [2] | signs of adverse acute toxicity (conscious dogs) | carotid arterial blood flow [3] |
| --- | --- | --- | --- | --- | --- |
| CCS(=O)(=O)CCc1ccc2[nH]cc(C[C@H]3CCCN3CCO)c2c1 [Example 26, 5-(2-Ethylsulphonylethyl)-3-[N-(2-hydroxyethyl)-2(R)pyrrolidinylmethyl]-1H-indole] | 3.8 | 6.80 | – | – | – |
| CCS(=O)(=O)CCc1ccc2[nH]cc(C[C@H]3CCCN3CCC(C)=O)c2c1 [Example 31, 5-(2-Ethylsulphonylethyl)-3-[N-{3-oxo-1-butyl)-2(R)-pyrrolidinylmethyl]-1H-indole] | 1.9 | 7.51 | – | – | – |
| CSc1ccc2c(c1)C(N1CCN(C)CC1)Cc1ccccc1S2 (stereo not drawn) [methiothepin] | – | – | can be blocked | – | – |
| CCS(=O)(=O)CCc1ccc2[nH]cc(C[C@H]3CCCN3CC[S+]([O-])c3ccccc3)c2c1 (single isomer, unassigned) [Example 37A] | 4.6 | 6.54 | – | – | – |
| CCS(=O)(=O)CCc1ccc2[nH]cc(C[C@H]3CCCN3C(C)c3ccccc3)c2c1 (mixture of isomers) [Example 13, 5-(2-Ethylsulphonylethyl)-3-{N-(1(R,S)-phenylethyl]-2(R)-pyrrolidinylmethyl}-1H-indole] | 1.4 | 7.15 | – | no signs of adverse acute toxicity | – |
| CCS(=O)(=O)CCc1ccc2[nH]cc(C[C@H]3CCCN3C3CCCC3)c2c1 [Example 9, 3-(N-Cyclopentyl-2(R)-pyrrolidinylmethyl)-5-(2-ethylsulphonylethyl)-1H-indole] | 1.8 | 7.09 | – | – | – |
| NS(=O)(=O)C=Cc1ccc2[nH]cc(C[C@H]3CCCN3CC3CC3)c2c1 [Example 44, 3-(N-Cyclopropylmethyl-2(R)-pyrrolidinomethyl)-5-(2-sulphamoylethenyl)-1H-indole] | 2.7 | 6.74 | – | – | – |
| CC(=O)CCN1CCC[C@@H]1Cc1c[nH]c2ccc(CCS(=O)(=O)c3ccccc3)cc12 [Example 38, 3-[N-(3-Oxo-1-butyl)-2-(R)-pyrroldinylmethyl]-5-(2phenylsulphonylethyl)-1H-indole] | 3.4 | 6.36 | – | – | – |
| CNS(=O)(=O)Cc1ccc2[nH]cc(CCN(C)C)c2c1 [Sumatriptan] | – | – | – | – | consequent decrease |
| O=S(=O)(CCc1ccc2[nH]cc(C[C@H]3CCCN3C3CCCC3)c2c1)c1ccccc1 [Example 21, 3-(N-Cyclopentyl-2(R)-pyrrolidinylmethyl)-5-(2-phenylsulphonylethyl)-1H-indole] | 4.9 | 6.25 | – | – | – |
| CCS(=O)(=O)CCc1ccc2[nH]cc(C[C@H]3CCCN3CC=C(C)C)c2c1 [Example 8, 5-(2-Ethylsulphonylethyl)-3-[N-(3-methyl-2-butenyl)-2(R)-pyrrolidinylmethyl]-1H-indole] | 2.5 | 6.72 | – | no signs of adverse acute toxicity | – |
| CCS(=O)(=O)CCc1ccc2[nH]cc(C[C@H]3CCCN3CCC(N)=O)c2c1 [Example 34] | 1.4 | 7.21 | – | – | – |
| CCS(=O)(=O)CCc1ccc2[nH]cc(C[C@H]3CCCN3CCc3ccccn3)c2c1 [Example 36] | 11.0 | 6.54 | – | – | – |
| CCS(=O)(=O)CCc1ccc2[nH]cc(C[C@H]3CCCN3CCOC)c2c1 [Example 4, 5-(2-Ethylsulphonylethyl)-3-[N-(2-methoxyethyl)-2-(R)-pyrrolidinylmethyl]-1H-indole] | 2.3 | 6.92 | – | – | – |
| CCS(=O)(=O)CCc1ccc2[nH]cc(C[C@H]3CCCN3Cc3ccccn3)c2c1 [Example 1, 5-(2-Ethylsulphonylethyl)-3-[N-[2-pyridylmethyl)-2(R)-pyrrolidinylmethyl]-1H-indole] | 9.4 | 6.37 | – | – | – |
